Laboratory results taken from ChEMBL document CHEMBL3045995, “Novel antifeeding limonoids from Dysoxylum hainanense” (2002).

Tested on: Pieris rapae
Assay: Antifeeding activity against fifth-instar larvae Pieris rapae in compound treated Brassica oleracea L leaf disk at 500 ppm measured after 24 hr relative to control
Format: functional

Structure (SMILES) | FDI
C=C1[C@@H]2[C@@H](O[C@H]3CC(=O)O[C@@]4(C)COC(=O)C[C@@H]4[C@]32C)[C@H](OC(=O)C(O)C(C)C)[C@@]2(C)[C@H](c3ccoc3)[C@@H](OC(=O)C(O)C(C)C)[C@H]3O[C@]132 (stereo partly specified) [DYSOXYLUMOLIDE A] | 27.9%
CC(=O)O[C@@H]1[C@H]2C(=C3[C@H](O)[C@H](O)[C@@H](c4ccoc4)[C@]3(C)[C@H]1OC(=O)C(O)C(C)C)COC(=O)C[C@@H](OC(=O)C(O)C(C)C)[C@@]2(C)[C@@H](CC(=O)O)C(C)(O)CO (stereo partly specified) [DYSOXYLUMIC ACID D] | 29.5%
C=C1[C@@H]([C@]2(C)[C@H]3CC(=O)O[C@@]3(C)CO[C@@H]2CC(=O)O)[C@@H](O)[C@H](OC(=O)C(O)C(C)C)[C@@]2(C)[C@H](C3=CC(O)OC3=O)[C@@H](O)[C@H]3O[C@]132 (stereo partly specified) [DYSOXYLUMIC ACID B] | 64.1%
CC(C)C(O)C(=O)O[C@H]1[C@H](O)[C@H]2C(=C3[C@H](O)[C@H](O)[C@@H](c4ccoc4)[C@@]31C)COC(=O)C[C@@H](OC(=O)C(O)C(C)C)[C@@]2(C)[C@H]1CC(=O)OC[C@@]1(C)O (stereo partly specified) [DYSOXYLUMOLIDE B] | 28.3%
C=C1[C@@H]([C@@]2(C)[C@@H](OC(C)=O)CC(=O)O[C@](C)(COC(C)=O)[C@@H]2CC(=O)OC)[C@@H](OC=O)[C@H](OC(=O)[C@H](O)C(C)C)[C@@]2(C)[C@@H](c3ccoc3)[C@@H](OC(=O)[C@@H](C)CC)[C@H]3O[C@]132 [DYSOXYLUMINS A] | 73.8%
C=C1[C@@H]([C@@]2(C)[C@@H](OC(C)=O)CC(=O)O[C@](C)(COC(C)=O)[C@@H]2CC(=O)OC)[C@@H](OC=O)[C@H](OC(=O)[C@H](O)C(C)C)[C@@]2(C)[C@@H](c3ccoc3)[C@@H](OC(=O)[C@H](O)C(C)C)[C@H]3O[C@]132 [DYSOXYLUMINS C] | 74.9%
C/C=C(\C)C(=O)O[C@H]1C[C@@H](OC(C)=O)[C@@]2(C(=O)OC)CO[C@H]3[C@@H](O)[C@@](C)([C@]45O[C@@]4(C)[C@@H]4C[C@H]5O[C@@H]5OC=C[C@@]54O)[C@H]4[C@]1(CO[C@]4(O)C(=O)OC)[C@@H]32 [AZADIRACHTIN A] | 100%
C=C1[C@@H]([C@]2(C)[C@H]3CC(=O)O[C@@]3(C)CO[C@@H]2CC(=O)O)[C@@H](O)[C@H](OC(=O)C(O)C(C)C)[C@@]2(C)[C@H](c3ccoc3)[C@@H](O)[C@H]3O[C@]132 (stereo partly specified) [DYSOXYLUMIC ACID A] | 78.7%
C=C1[C@@H]2[C@@H](O[C@@H](CC(=O)O)[C@@]2(C)[C@H]2CC(=O)O[C@]2(C)CO)[C@H](OC(=O)C(O)C(C)C)[C@@]2(C)[C@H](c3ccoc3)[C@@H](O)[C@H]3O[C@]132 (stereo partly specified) [DYSOXYLUMIC ACID C] | 59.4%
CC(C)C(O)C(=O)OC(C(=O)O[C@@H]1[C@H](O)[C@@H]2[C@](C)(/C=C\C(=O)OC[C@@]2(C)O)[C@H]2CC[C@@]3(C)[C@H](c4ccoc4)OC(=O)[C@H]4O[C@]43[C@]12C)C(C)C (stereo partly specified) [DYSOXYLUMOLIDE C] | 22.4%
C=C1[C@@H]([C@@]2(C)[C@@H](OC(C)=O)CC(=O)O[C@](C)(COC(C)=O)[C@@H]2CC(=O)OC)[C@@H](OC=O)[C@H](OC(=O)[C@H](O)C(C)C)[C@@]2(C)[C@@H](c3ccoc3)[C@@H](OC(=O)[C@H](OC(C)=O)C(C)C)[C@H]3O[C@]132 [DYSOXYLUMINS B] | 77.4%
